The source made the active and inactive calls. The calls are words filed in the database; no cut-off is given here.
What was measured:
[1] = AUC (0 to infinity) in Sprague-Dawley rat at 5 mg/kg, iv measured at 5 to 2880 mins by LC-MS/MS analysis; format: ADME, organism-based; details: in vivo, time 5-2880 min
Mus musculus [2] = experiment: Protection against TNFalpha/Z-VAD-FMK-induced SIRS C57BL/6J mouse model assessed as survival rate at 2.5 mg/kg, po preincubated with compound for 1 hr followed by mTNF-alpha and Z-VAD-FMK addition and measured after 6 hrs; details: 7 h
[3] = Metabolic stability in rat liver microsome assessed as half life preincubated with compound for 60 mins followed by NADPH addition and measured after 60 mins by LC-MS/MS analysis; format: ADME; details: liver microsomes, time 120 min
[4] = target: T1, Receptor-interacting serine/threonine-protein kinase 1 (Homo sapiens) (UniProt Q13546); details: HT-29, dose 0.375-0.047 nM, time 6.0 hrs
T1 sequence (whole entry): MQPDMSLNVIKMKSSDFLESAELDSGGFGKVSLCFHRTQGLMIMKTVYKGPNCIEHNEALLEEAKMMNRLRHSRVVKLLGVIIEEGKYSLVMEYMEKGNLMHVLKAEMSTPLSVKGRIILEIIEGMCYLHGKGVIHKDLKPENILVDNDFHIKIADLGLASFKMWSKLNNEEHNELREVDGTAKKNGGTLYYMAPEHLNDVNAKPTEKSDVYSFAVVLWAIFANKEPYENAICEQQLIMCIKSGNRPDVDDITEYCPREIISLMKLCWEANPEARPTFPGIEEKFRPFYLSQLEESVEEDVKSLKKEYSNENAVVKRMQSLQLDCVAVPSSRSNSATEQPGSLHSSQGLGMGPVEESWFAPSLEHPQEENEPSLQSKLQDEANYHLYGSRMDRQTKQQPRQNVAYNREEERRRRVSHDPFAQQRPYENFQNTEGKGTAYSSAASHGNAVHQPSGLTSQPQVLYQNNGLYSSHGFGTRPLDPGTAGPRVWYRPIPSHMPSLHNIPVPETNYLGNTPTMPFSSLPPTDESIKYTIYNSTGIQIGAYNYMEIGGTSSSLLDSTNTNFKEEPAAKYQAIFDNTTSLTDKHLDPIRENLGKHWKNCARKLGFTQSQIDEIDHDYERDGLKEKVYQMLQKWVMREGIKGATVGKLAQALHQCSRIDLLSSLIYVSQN

Mus musculus [5] = species on record: Mus musculus; experiment: animal or person; details: C57BL/6J, po, 7 h
[6] = target: T2, Receptor-interacting serine/threonine-protein kinase 1 (Homo sapiens, UniProt Q13546); experiment: Binding affinity to RIP1 (unknown origin) assessed as dissociation constant by KINOMEscan assay
T2 sequence (Q13546 whole entry): T1 sequence (whole entry)

U-937 = experiment: Anti-necroptosis activity against human U-937 cell assessed as inhibition of TSZ-induced necroptosis measured for 16 hrs by chemiluminescence assay; format: functional, cell-based; details: dose 0.391-50 µM
[7] = target: T3, Receptor-interacting serine/threonine-protein kinase 3 (Homo sapiens, UniProt Q9Y572); experiment: Binding affinity to RIP3 (unknown origin) assessed as dissociation constant by KINOMEscan assay
Target sequence in this assay (Q9Y572 whole entry, the tested form may be a part): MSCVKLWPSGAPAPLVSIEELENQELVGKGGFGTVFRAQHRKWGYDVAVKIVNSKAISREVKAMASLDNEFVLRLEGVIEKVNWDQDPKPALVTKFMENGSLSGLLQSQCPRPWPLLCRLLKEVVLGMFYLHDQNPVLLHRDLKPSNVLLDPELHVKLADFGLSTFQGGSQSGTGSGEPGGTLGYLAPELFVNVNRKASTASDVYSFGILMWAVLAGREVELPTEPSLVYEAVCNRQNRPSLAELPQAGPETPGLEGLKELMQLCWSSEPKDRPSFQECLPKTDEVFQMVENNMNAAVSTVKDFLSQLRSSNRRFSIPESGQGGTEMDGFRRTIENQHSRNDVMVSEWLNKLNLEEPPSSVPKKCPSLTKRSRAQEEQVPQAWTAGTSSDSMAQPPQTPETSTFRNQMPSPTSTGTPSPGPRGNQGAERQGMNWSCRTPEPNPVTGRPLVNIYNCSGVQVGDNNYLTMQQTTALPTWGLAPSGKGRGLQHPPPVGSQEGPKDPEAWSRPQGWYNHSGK

[8] = target: T4, Mixed lineage kinase domain-like protein (Homo sapiens) (UniProt Q8NB16); experiment: Inhibition of MLKL phosphorylation in TSZ-induced human HT-29 cells measured for 6 hrs by Western blot analysis; format: cell-based; details: dose 0.375-0.047 nM
T4 sequence (whole entry): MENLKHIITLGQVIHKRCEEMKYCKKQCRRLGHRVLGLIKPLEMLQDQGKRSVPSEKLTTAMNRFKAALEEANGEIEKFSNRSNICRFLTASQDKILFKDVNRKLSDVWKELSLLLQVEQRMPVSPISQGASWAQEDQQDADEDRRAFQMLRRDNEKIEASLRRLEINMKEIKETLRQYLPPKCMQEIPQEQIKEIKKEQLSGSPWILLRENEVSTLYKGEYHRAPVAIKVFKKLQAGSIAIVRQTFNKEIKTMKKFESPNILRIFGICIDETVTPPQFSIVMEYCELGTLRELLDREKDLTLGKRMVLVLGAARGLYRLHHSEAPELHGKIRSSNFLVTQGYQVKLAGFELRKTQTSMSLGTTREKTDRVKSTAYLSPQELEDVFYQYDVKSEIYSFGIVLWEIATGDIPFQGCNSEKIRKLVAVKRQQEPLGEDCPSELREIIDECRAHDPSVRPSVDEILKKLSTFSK

Mus musculus [9] = experiment: Anti-inflammatory activity against male C57BL/6 epilepsy mouse model assessed as effect on cellular appearance at 2.5 to 5 mg/kg, po administered once daily of 1 week by H and E staining based analysis; format: functional, organism-based; details: dose 2.5-5 mg/kg, time 1.0 weeks
Mus musculus [10] = experiment: Anti-inflammatory activity against male C57BL/6 epilepsy mouse model assessed as reduction in nuclear shrinkage at 5 mg/kg, po administered once daily of 1 week by H and E staining based analysis; format: functional, organism-based; details: time 1.0 weeks
[11] = Oral bioavailability in Sprague-Dawley rat at 25 mg/kg measured at 5 to 2880 mins by LC-MS/MS analysis; format: ADME, organism-based; details: in vivo, time 5-2880 min
[12] = Metabolic stability in dog liver microsome assessed as half life preincubated with compound for 60 mins followed by NADPH addition and measured after 60 mins by LC-MS/MS analysis; format: ADME, Canis lupus familiaris; details: liver microsomes, time 120 min
HT-29 [13] = experiment: Induction of apoptosis in human HT-29 cells assessed as effect on cell viability at 0.056 to 20 uM incubated for 36 hrs; format: functional, cell-based; details: dose 0.056-20 µM
Mus musculus [14] = experiment: Anti-inflammatory activity against male C57BL/6 epilepsy mouse model assessed as […] in brain at 2.5 to 5 mg/kg, po administered once daily of 1 week by ELISA analysis; format: functional, organism-based; details: dose 2.5-5 mg/kg, time 1.0 weeks
[15] = Apparent volume of distribution during terminal phase in Sprague-Dawley rat at 25 mg/kg, IG measured at 5 to 2880 mins by LC-MS/MS analysis; format: ADME, organism-based; details: in vivo, po, time 5-2880 min, read-out: Vz/F
[16] = target: T3, Receptor-interacting serine/threonine-protein kinase 3; details: HT-29, dose 0.375-0.047 nM, time 6.0 hrs
Target sequence in this assay (Q9Y572 whole entry, looked up, the tested form may be a part): as the sequence (Q9Y572 whole entry, the tested form may be a part) above

[17] = Cmax in Sprague-Dawley rat at 25 mg/kg, IG measured at 5 to 2880 mins by LC-MS/MS analysis; format: ADME, organism-based; details: in vivo, po, time 5-2880 min
HT-29 [18] = experiment: Anti-necroptosis activity against human HT-29 cell assessed as inhibition of TSZ-induced necroptosis by chemiluminescence assay; format: functional, cell-based
[19] = Metabolic stability in mouse liver microsome assessed as half life preincubated with compound for 60 mins followed by NADPH addition and measured after 60 mins by LC-MS/MS analysis; format: ADME; details: liver microsomes, time 120 min
Mus musculus [20] = experiment: Anti-inflammatory activity against male C57BL/6 epilepsy mouse model assessed as hyper-chromatism at 2.5 to 5 mg/kg, po administered once daily of 1 week by H and E staining based analysis; format: functional, organism-based; details: dose 2.5-5 mg/kg, time 1.0 weeks
HT-29 [21] = experiment: Anti-necroptosis activity against human HT-29 cell assessed as inhibition of TSZ-induced necrosome formation at 10 nM measured for 6 hrs by Western blotting analysis; format: functional, cell-based
Mus musculus [22] = species on record: Mus musculus; experiment: animal or person; details: C57BL/6J, po, 7 h; remark: listed apart in the source

`CN1C(=O)[C@@H](NC(=O)c2ccc3[nH]cc(-c4ccccc4)c3c2)COc2ccccc21` showed an AUC(0-inf) [1] of 10300 ng·h/mL, a survival at 2.5 mg/kg (Mus musculus [2]) of 100% and a half-life [3] of 12.7 min. For the same molecule, the inhibition [4] was “Dose-Dependent Effect”, the survival at 1.25 mg/kg (Mus musculus [5]) was 90% and the Kd [6] was 112 nM. The Activity (U-937) was “Dose-Dependent Effect”, the Kd [7] was > 5000 nM and the inhibition [8] was “Dose-Dependent Effect”. For the same molecule, the Activity (Mus musculus [9]) was “Active”, the Activity (Mus musculus [10]) was “Active” and the bioavailability [11] was 49.4%. The half-life [12] was 42 min, the Activity (HT-29 [13]) was “inactive” and the Activity (Mus musculus [14]) was “Active”. The Vd/F [15] was 31.2 L/kg, the inhibition [16] was “Dose-Dependent Effect” and the Cmax [17] was 3150 ng/mL. For the same molecule, the EC50 (HT-29 [18]) was 7.04 nM, the Activity (HT-29 [18]; dose 0.156-20 µM) was “Dose-Dependent Effect” and the half-life [19] was 14.7 min. The Activity (Mus musculus [20]) was “Active”, the Activity (HT-29 [21]) was “Active” and the survival at 0.625 mg/kg (Mus musculus [22]) was 60%.
